Measured values: patent publication US9943569B2, “Method for preventing or reducing postoperative pulmonary complications” (OSAKA UNIVERSITY, priority 2015, dated 2018)

How the values were obtained:
Assay type in all cases: in vivo, human
[1] = system: patients undergoing esophagectomy; assay: Postoperative complications according to the Clavien-Dindo classification
Source text: Forty patients with primary esophageal cancer who underwent esophagectomy were selected to participate in a randomized, placebo-controlled phase II study. The patients were selected based on the following eligibility criteria: (1) thoracic esophageal cancer treated by performing radical esophagectomy with gastric tube reconstruction; (2) age 20 to 75 years; (3) adequate functioning of major organs; (4) no other active malignancies; and (5) provision of written informed consent. The following exclusions criteria were used: (1) preoperative diagnosis of esophageal cancer invasion to the aorta or trachea and other organs; (2) patients with multiple cancer; (3) severe respiratory problems, such as emphysema; (4) patients with prior ischemic heart disease; (5) liver cirrhosis or active hepatitis; (6) renal failure requiring dialysis treatment; (7) poorly controlled diabetes mellitus or disease requiring insulin treatment; (8) consecutive use of steroids; and (9) mental disorder. The patients were randomly divided into a ghrelin group and a placebo group at a 1:1 ratio. The approach for thoracic manipulation (i.e., open or thoracoscopic surgery) was used as the only stratification factor. Group allocation was performed before the initiation of surgery. The study was performed in a double-blind manner, and an independent researcher assessed outcomes.
(§1) The primary endpoint of this study was SIRS duration. The secondary endpoints were postoperative complications, serum C-reactive protein (CRP) and IL-6 levels, time required to attain a positive nitrogen balance, and changes in body weight and body composition. Postoperative complications were defined as adverse events caused by surgery. Patients received an intravenous continuous infusion of ghrelin (0.5 μg/kg/h) or placebo (pure saline) for 5 days postoperatively. Ghrelin was diluted to a final volume of 48 mL with saline, and the solution was administered at a rate of 2 mL/h by using an infusion pump through a central venous catheter inserted into the right subclavian vein. The same amount of ghrelin was administered via intravenous infusion during the 5 days of treatment; the dose was calculated on the basis of body weight on the day before surgery. Patients in the placebo group received the corresponding infusion containing pure saline using same procedure.
Blood sampling was performed at the following 7 time points: before surgery; 2 hours after initiation of surgery (during thoracotomy); 4 hours after initiation of surgery (during laparotomy); and on PODs 1, 3, 7, and 10. Complete blood count was performed every day for at least 10 PODs. If the leukocyte count was not within the normal range on POD10, complete blood counts were performed daily until it was within the normal range for 3 consecutive days. SIRS was diagnosed according to the criteria proposed by the American College of Chest Physicians/Society of Critical Care Medicine Consensus Conference^32 and when 2 or more of the following criteria were present: (1) body temperature less than 36° C. or more than 38° C.; (2) heart rate more than 90 beats per minute; (3) tachypnea with more than 20 breaths per minute or an arterial partial pressure of carbon dioxide less than 32 mm Hg; and (4) white blood cell count less than 4000 cells/mm^3, >12,000 cells/mm^3, or an immature (band) form more than 10%. Postoperative complications were evaluated according to the Clavien-Dindo classification.^33 Grade I required no treatment, grade II required medical therapy, grade Ma required interventions but not general anesthesia, grade Mb required general anesthesia, grade IV represented life-threatening states that required intensive care, and grade V represented death.

[2] = system: patients undergoing esophagectomy; assay: Adverse events attributable to ghrelin administration in the phase II study; settings: during the study period; 0.5 μg/kg/h continuous i.v. for 5 days, n=20
Method: as §1
In total, 40 enrolled patients were randomized into either the ghrelin group (20 patients) or the placebo group (20 patients). All patients received the planned dose of ghrelin or placebo during the planned period. […]

[3] = system: patients after esophagectomy; assay: Phase I study of ghrelin administration during the postoperative period after esophagectomy
[4] = ghrelin 0.5 μg/kg/h continuous i.v. for 5 days, n=20

CCCCCCCC(=O)OC[C@H](NC(=O)[C@H](CO)NC(=O)CN)C(=O)N[C@@H](Cc1ccccc1)C(=O)N[C@@H](CC(C)C)C(=O)N[C@@H](CO)C(=O)N1CCC[C@H]1C(=O)N[C@@H](CCC(=O)O)C(=O)N[C@@H](Cc1cnc[nH]1)C(=O)N[C@@H](CCC(N)=O)C(=O)N[C@@H](CCCNC(=N)N)C(=O)N[C@H](C(=O)N[C@@H](CCC(N)=O)C(=O)N[C@@H](CCC(N)=O)C(=O)N[C@@H](CCCNC(=N)N)C(=O)N[C@@H](CCCCN)C(=O)N[C@@H](CCC(=O)O)C(=O)N[C@@H](CO)C(=O)N[C@@H](CCCCN)C(=O)N[C@@H](CCCCN)C(=O)N1CCC[C@H]1C(=O)N1CCC[C@H]1C(=O)N[C@@H](C)C(=O)N[C@@H](CCCCN)C(=O)N[C@@H](CC(C)C)C(=O)N[C@@H](CCC(N)=O)C(=O)N1CCC[C@H]1C(=O)N[C@@H](CCCNC(=N)N)C(=O)O)C(C)C [ghrelin]
Anastomotic leak, number of patients ([1]; Grade 0, n=20): 19 | Arrhythmia, number of patients ([1]; Grade 0, n=20): 19 | Bleeding, number of patients ([1]; Grade 0, n=20): 20 | Lymphorrhea, number of patients ([1]; Grade 0, n=20): 20 | Pneumonia, atelectasis, number of patients ([1]; Grade 0, n=20): 14 | Recurrent nerve paralysis, number of patients ([1]; Grade 0, n=20): 18 | Wound infection, number of patients ([1]; Grade 0, n=20): 19 | Anastomotic leak, number of patients ([1]; Grade I, II, n=20): 1 | Arrhythmia, number of patients ([1]; Grade I, II, n=20): 1 | Bleeding, number of patients ([1]; Grade I, II, n=20): 0 | Lymphorrhea, number of patients ([1]; Grade I, II, n=20): 0 | Pneumonia, atelectasis, number of patients ([1]; Grade I, II, n=20): 4 | Recurrent nerve paralysis, number of patients ([1]; Grade I, II, n=20): 2 | Wound infection, number of patients ([1]; Grade I, II, n=20): 1 | Anastomotic leak, number of patients ([1]; Grade III, IV, n=20): 0 | Arrhythmia, number of patients ([1]; Grade III, IV, n=20): 0 | Bleeding, number of patients ([1]; Grade III, IV, n=20): 0 | Lymphorrhea, number of patients ([1]; Grade III, IV, n=20): 0 | Pneumonia, atelectasis, number of patients ([1]; Grade III, IV, n=20): 2 | Recurrent nerve paralysis, number of patients ([1]; Grade III, IV, n=20): 0 | Wound infection, number of patients ([1]; Grade III, IV, n=20): 0 | Postoperative complications of higher than grade 1 (Clavien-Dindo), number of patients [1, 4]: 10 | Postoperative complications of higher than grade 1 (Clavien-Dindo), share of patients [1, 4]: 50% | incidence of pulmonary complications, including postoperative pneumonia and atelectasis, versus placebo group ([1]; ghrelin 0.5 μg/kg/h continuous i.v. for 5 days, P=0.016): significantly lower | adverse events attributable to ghrelin administration [2]: No adverse events attributable to ghrelin administration were observed | systemic inflammation relative to conventional management protocols without ghrelin [3]: tended to be suppressed | effect on fundamental vital signs (blood pressure, heart rate, urine output, pulmonary and liver function) ([3]; postoperative intensive care management): did not affect fundamental vital signs
